Results on 26 molecules are retold here after patent publication US20100204265A1 (priority 2009, published 2010).

In the assay the test system is ET (Huh-lucubineo-ET) cell line harboring I389luc-ubi-neo/NS3-3′/ET HCV replicon. As to the kind of experiment: Replicon assay (HCV replicon, luciferase readout). It counts as cell-based. As to conditions: Hepatitis C virus. As for the experimental part: A cell line, ET (Huh-lucubineo-ET) is used for screening of compounds for inhibiting HCV RNA dependent RNA polymerase. The ET cell line is stably transfected with RNA transcripts harboring a I389luc-ubi-neo/NS3-3′/ET; replicon with firefly luciferase-ubiquitin-neomycin phosphotransferase fusion protein and EMCV-IRES driven NS3-5B polyprotein containing the cell culture adaptive mutations (E1202G; T1280I; K1846T) (Krieger at al, 2001 and unpublished). The ET cells are grown in DMEM (Dulbeco's Modified Eagle's Medium), supplemented with 10% fetal calf serum, 2 mM Glutamine, Penicillin (100 IU/mL)/Streptomycin (100 μg/mL), 1× nonessential amino acids, and 250 μg/mL G418 (“Geneticin”). They are all available through Life Technologies (Bethesda, Md.). The cells are plated at 0.5−1.0×10^4 cells/well in the 96 well plates and incubated for 24 hrs before adding test compound. The compounds are added to the cells to achieve a final concentration of 0.1 nM to […] and a final DMSO (dimethylsulfoxide) concentration of 0.5%. Luciferase activity is measured 48-72 hours later by adding a lysis buffer and the substrate (Catalog number Glo-lysis buffer E2661 and Bright-Glo luciferase system E2620 Promega, Madison, Wis.). Cells should not be too confluent during the assay. Percent inhibition of replication data is plotted relative to no compound control. Under the same condition, cytotoxicity of the compounds are determined using cell proliferation reagent, WST-1 (Roche, Germany). The compounds showing antiviral activities, but no significant cytotoxicities are chosen to determine EC50 and TC50. For these determinations, a 10 point, 2-fold serial dilution for each compound was used, which spans a concentration range of 1000 fold. EC50 and similarly TC50 values were calculated by fitting % inhibition at each concentration to the following equation:
% inhibition=100%/[(EC50/[I])^b+1]
where b is Hill's coefficient.
Background: Replicon systems follow genome replication, usually without infectious particles.

Bounds are passed on as bounds.

Molecule `O=C(c1nc2c(C(F)(F)F)cc(-c3cccs3)cn2c1Cl)N1CC=C(c2ncccc2F)CC1` [Compound 123, (3-Chloro-6-thiophen-2-yl-8-trifluoromethyl-imidazo[1,2-a]pyridin-2-yl)-(3-fluoro-3′,6′-dihydro-2′H-[2,4′]bipyridinyl-1′-yl)-methanone] displayed an EC50 of 0.147 µM.

In the case of `O=C(c1nc2c(C(F)(F)F)cc(-c3ccccc3)cn2c1Cl)N1CC=C(c2ncccc2F)CC1` [Compound 124, (3-Chloro-6-phenyl-8-trifluoromethyl-imidazo[1,2-a]pyridin-2-yl)-(3-fluoro-3′,6′-dihydro-2′H-[2,4′]bipyridinyl-1′-yl)-methanone], the EC50 is 2.48 µM. This EC50 lies about 17-fold higher than the previous one.

For the molecule `O=C(c1nc2c(C(F)(F)F)cc(Br)cn2c1Cl)N1CC=C(c2ncccc2F)CC1` [Compound 125, (6-Bromo-3-chloro-8-trifluoromethyl-imidazo[1,2-a]pyridin-2-yl)-(3-fluoro-3′,6′-dihydro-2′H-[2,4′]bipyridinyl-1′-yl)-methanone], the EC50 was determined as 0.0293 µM.

Consider `C=Cc1cc(C(F)(F)F)c2nc(C(=O)N3CC=C(c4ncccc4F)CC3)c(Cl)n2c1` [Compound 126, (3-Chloro-8-trifluoromethyl-6-vinyl-imidazo[1,2-a]pyridin-2-yl)-(3-fluoro-3′,6′-dihydro-2′H-[2,4′]bipyridinyl-1′-yl)-methanone], for which the EC50 worked out at 0.0275 µM.

Molecule `O=C(c1nc2c(C(F)(F)F)cc(/C=C/C3CC3)cn2c1Cl)N1CC=C(c2ncccc2F)CC1` [Compound 127, [3-Chloro-6-(2-cyclopropyl-vinyl)-8-trifluoromethyl-imidazo[1,2-a]pyridin-2-yl]-(3-fluoro-3′,6′-dihydro-2′H-[2,4′]bipyridinyl-1′-yl)-methanone] had an EC50 of 0.428 µM. Compared with the last molecule, the EC50 is about 16-fold higher.

For `O=C(Cc1cccc(F)c1)NCc1cn2cc(-c3ccoc3)cc(C(F)(F)F)c2n1` [Compound 128, 2-(3-Fluoro-phenyl)-N-(6-furan-3-yl-8-trifluoromethyl-imidazo[1,2-a]pyridin-2-ylmethyl)-acetamide], the EC50 was 4.83 µM.

Molecule `O=C(Cc1ccccc1F)NCc1cn2cc(-c3ccoc3)cc(C(F)(F)F)c2n1` [Compound 129, 2-(2-Fluoro-phenyl)-N-(6-furan-3-yl-8-trifluoromethyl-imidazo[1,2-a]pyridin-2-ylmethyl)-acetamide] gave an EC50 of 20.3 µM.

As for `O=C(NCc1cn2cc(-c3ccoc3)cc(C(F)(F)F)c2n1)c1ccccc1` [Compound 130, N-(6-Furan-3-yl-8-trifluoromethyl-imidazo[1,2-a]pyridin-2-ylmethyl)-benzamide], the response was half-maximal at 49.8 µM (EC50).

`O=C(c1nc2c(C(F)(F)F)cc(-c3cn[nH]c3)cn2c1Cl)N1CC=C(c2ccoc2)C1` [Compound 131, [3-Chloro-6-(1H-pyrazol-4-yl)-8-trifluoromethyl-imidazo[1,2-a]pyridin-2-yl]-(3-furan-3-yl-2,5-dihydro-pyrrol-1-yl)-methanone] came in with a half-maximal effective concentration (EC50) of 0.268 µM. Compared with the last molecule, the EC50 is about 190-fold lower.

The molecule `O=C(c1nc2c(C(F)(F)F)cc(-c3cn[nH]c3)cn2c1Cl)N1CC=C(c2ccsc2)C1` [Compound 132, [3-Chloro-6-(1H-pyrazol-4-yl)-8-trifluoromethyl-imidazo[1,2-a]pyridin-2-yl]-(3-thiophen-3-yl-2,5-dihydro-pyrrol-1-yl)-methanone] displayed an EC50 of 0.107 µM.

Regarding `O=C(c1nc2c(C(F)(F)F)cc(-c3cn[nH]c3)cn2c1Cl)N1CC=C(c2cnoc2)C1` [Compound 133, [3-Chloro-6-(1H-pyrazol-4-yl)-8-trifluoromethyl-imidazo[1,2-a]pyridin-2-yl]-(3-isoxazol-4-yl-2,5-dihydro-pyrrol-1-yl)-methanone], the response was half-maximal at 3.47 µM (EC50).

`O=C(c1nc2c(C(F)(F)F)cc(-c3cn[nH]c3)cn2c1Cl)N1CC=C(c2cccnc2)C1` [Compound 134, [3-Chloro-6-(1H-pyrazol-4-yl)-8-trifluoromethyl-imidazo[1,2-a]pyridin-2-yl]-(3-pyridin-3-yl-2,5-dihydro-pyrrol-1-yl)-methanone] came in with an EC50 of 0.188 µM.

For `O=C(c1nc2c(C(F)(F)F)cc(-c3cn[nH]c3)cn2c1Cl)N1CC=C(c2cn[nH]c2)C1` [Compound 135, [3-Chloro-6-(1H-pyrazol-4-yl)-8-trifluoromethyl-imidazo[1,2-a]pyridin-2-yl]-[3-(1H-pyrazol-4-yl)-2,5-dihydro-pyrrol-1-yl]-methanone], the 50% effective concentration (EC50) came out at 0.596 µM.

`O=C(c1nc2c(C(F)(F)F)cc(-c3cn[nH]c3)cn2c1Cl)N1CC=C(C2=CCNCC2)C1` [Compound 136, [3-Chloro-6-(1H-pyrazol-4-yl)-8-trifluoromethyl-imidazo[1,2-a]pyridin-2-yl]-[3-(1,2,3,6-tetrahydro-pyridin-4-yl)-2,5-dihydro-pyrrol-1-yl]-methanone] returned an EC50 of 5.37 µM.

In the case of `O=C(c1nc2c(C(F)(F)F)cc(-c3cn[nH]c3)cn2c1Cl)N1CC=C(c2cc[nH]n2)C1` [Compound 137, [3-Chloro-6-(1H-pyrazol-4-yl)-8-trifluoromethyl-imidazo[1,2-a]pyridin-2-yl]-[3-(1H-pyrazol-3-yl)-2,5-dihydro-pyrrol-1-yl]-methanone], the EC50 is over 50 µM.

In the case of `O=C(NCCc1cn2cc(-c3ccoc3)cc(C(F)(F)F)c2n1)c1ccccc1` [Compound 138, N-[2-(6-Furan-3-yl-8-trifluoromethyl-imidazo[1,2-a]pyridin-2-yl)-ethyl]-benzamide], the concentration giving a half-maximal response (EC50) amounted to 35.3 µM.

Consider `CS(=O)(=O)NC1CN(C(=O)c2nc3c(C(F)(F)F)cc(-c4ccco4)cn3c2Cl)C1` [Compound 139, N-[1-(3-Chloro-6-furan-2-yl-8-trifluoromethyl-imidazo[1,2-a]pyridine-2-carbonyl)-azetidin-3-yl]-methanesulfonamide], for which the EC50 amounted to 0.112 µM.

Molecule `CS(=O)(=O)NC1CN(C(=O)c2nc3c(C(F)(F)F)cc(Br)cn3c2Cl)C1` [Compound 140, N-[1-(6-Bromo-3-chloro-8-trifluoromethyl-imidazo[1,2-a]pyridine-2-carbonyl)-azetidin-3-yl]-methanesulfonamide] returned an EC50 of 13.8 µM.

Take `CS(=O)(=O)NC1CN(C(=O)c2nc3c(C(F)(F)F)cc(-c4cccc(F)c4)cn3c2Cl)C1` [Compound 141, N-{1-[3-Chloro-6-(3-fluoro-phenyl)-8-trifluoromethyl-imidazo[1,2-a]pyridine-2-carbonyl]-azetidin-3-yl}-methanesulfonamide]: the EC50 amounted to 0.476 µM.

`CS(=O)(=O)NC1CN(C(=O)c2nc3c(C(F)(F)F)cc(-c4cccnc4)cn3c2Cl)C1` [Compound 142, N-[1-(3-Chloro-6-pyridin-3-yl-8-trifluoromethyl-imidazo[1,2-a]pyridine-2-carbonyl)-azetidin-3-yl]-methanesulfonamide] gave an EC50 of 1.94 µM.

`CN(C1CN(C(=O)c2nc3c(C(F)(F)F)cc(-c4ccoc4)cn3c2Cl)C1)S(C)(=O)=O` [Compound 143, N-[1-(3-Chloro-6-furan-3-yl-8-trifluoromethyl-imidazo[1,2-a]pyridine-2-carbonyl)-azetidin-3-yl]-N-methyl-methanesulfonamide] returned an EC50 of 0.901 µM.

For `CS(=O)(=O)N(CCO)C1CN(C(=O)c2nc3c(C(F)(F)F)cc(-c4ccoc4)cn3c2Cl)C1` [Compound 144, N-[1-(3-Chloro-6-furan-3-yl-8-trifluoromethyl-imidazo[1,2-a]pyridine-2-carbonyl)-azetidin-3-yl]-N-(2-hydroxy-ethyl)-methanesulfonamide], the midpoint of the response, the EC50, lay at 7.55 µM.

On to `CS(=O)(=O)NC1CN(C(=O)c2cn3cc(-c4coc(Br)c4)cc(C(F)(F)F)c3n2)C1` [Compound 145, N-{1-[6-(5-Bromo-furan-3-yl)-8-trifluoromethyl-imidazo[1,2-a]pyridine-2-carbonyl]-azetidin-3-yl}-methanesulfonamide], for which the EC50 was found to be 3.5 µM.

Molecule `CCS(=O)(=O)NC1CN(C(=O)c2cn3cc(-c4coc(Br)c4)cc(C(F)(F)F)c3n2)C1` [Compound 146, Ethanesulfonic acid {1-[6-(5-bromo-furan-3-yl)-8-trifluoromethyl-imidazo[1,2-a]pyridine-2-carbonyl]-azetidin-3-yl}-amide] showed an EC50 of 2.24 µM.

`O=C(c1cn2cc(-c3coc(Br)c3)cc(C(F)(F)F)c2n1)N1CC(NS(=O)(=O)C2CC2)C1` [Compound 147, Cyclopropanesulfonic acid {1-[6-(5-bromo-furan-3-yl)-8-trifluoromethyl-imidazo[1,2-a]pyridine-2-carbonyl]-azetidin-3-yl}-amide] displayed an EC50 of 3.99 µM.

For the molecule `O=C(c1nc2c(C(F)(F)F)cc(-c3ccoc3)cn2c1C1CC1)N1CC=C(c2ncccc2F)CC1` [Compound 149, (3-Cyclopropyl-6-furan-3-yl-8-trifluoromethyl-imidazo[1,2-a]pyridin-2-yl)-(3-fluoro-3′,6′-dihydro-2′H-[2,4′]bipyridinyl-1′-yl)-methanone], the 50% effective concentration (EC50) was 5.08 µM.

Usually EC50 stands for the midpoint of the concentration-response curve.
